Laboratory results taken from article PMC6856721, “Discovery of a Novel DNA Gyrase-Targeting Antibiotic through the Chemical Perturbation of Streptomyces venezuelae Sporulation” (Cell Chemical Biology, 2019).

Molecular target: T1, S. aureus gyrase (Staphylococcus aureus, UniProt P0A0K8+P20831)
T1 construct: purchased Inspiralis Inc. SAS4001 (supercoiling kit); SAGC001 (cleavage assay kit)
Test: S. aureus gyrase cleavage
Assay type: biochemical
Description: 1 U of gyrase was incubated with 0.5 μg of supercoiled pBR322 DNA in a 30 μL reaction at 37 C for 30 minutes under the following conditions: 40 mM HEPES. KOH (pH 7.6), 10 mM magnesium acetate, 10 mM DTT, 100 mM potassium glutamate and 0.05 mg/mL albumin. 0.2 % SDS and 0.1 mg/mL Proteinase K were added before a further incubation at 37°C for 30 minutes. Each reaction was stopped by the addition of 30 μL chloroform/iso-amyl alcohol (24:1) and 20 μL Stop Dye, before being loaded on a 1.0% TAE agarose gel. Gels run at 80 V for 2 hours.

T1 sequence (P0A0K8 whole entry): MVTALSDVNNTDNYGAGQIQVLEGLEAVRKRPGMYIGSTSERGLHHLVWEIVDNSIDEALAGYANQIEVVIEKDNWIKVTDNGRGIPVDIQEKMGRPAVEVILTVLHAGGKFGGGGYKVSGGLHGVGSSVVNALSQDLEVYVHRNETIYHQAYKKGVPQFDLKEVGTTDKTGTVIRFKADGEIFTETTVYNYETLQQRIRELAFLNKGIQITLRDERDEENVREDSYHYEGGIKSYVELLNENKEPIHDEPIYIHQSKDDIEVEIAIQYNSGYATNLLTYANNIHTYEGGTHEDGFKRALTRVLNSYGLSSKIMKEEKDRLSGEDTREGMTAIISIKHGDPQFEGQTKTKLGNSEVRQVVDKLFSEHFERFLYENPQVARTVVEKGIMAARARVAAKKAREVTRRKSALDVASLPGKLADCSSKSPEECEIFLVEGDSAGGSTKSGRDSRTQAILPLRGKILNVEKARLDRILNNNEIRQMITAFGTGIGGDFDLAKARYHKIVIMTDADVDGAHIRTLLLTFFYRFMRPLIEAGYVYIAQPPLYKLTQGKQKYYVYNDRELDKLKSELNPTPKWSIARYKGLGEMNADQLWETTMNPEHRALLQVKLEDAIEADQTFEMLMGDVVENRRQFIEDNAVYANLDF
T1 sequence (P20831 whole entry): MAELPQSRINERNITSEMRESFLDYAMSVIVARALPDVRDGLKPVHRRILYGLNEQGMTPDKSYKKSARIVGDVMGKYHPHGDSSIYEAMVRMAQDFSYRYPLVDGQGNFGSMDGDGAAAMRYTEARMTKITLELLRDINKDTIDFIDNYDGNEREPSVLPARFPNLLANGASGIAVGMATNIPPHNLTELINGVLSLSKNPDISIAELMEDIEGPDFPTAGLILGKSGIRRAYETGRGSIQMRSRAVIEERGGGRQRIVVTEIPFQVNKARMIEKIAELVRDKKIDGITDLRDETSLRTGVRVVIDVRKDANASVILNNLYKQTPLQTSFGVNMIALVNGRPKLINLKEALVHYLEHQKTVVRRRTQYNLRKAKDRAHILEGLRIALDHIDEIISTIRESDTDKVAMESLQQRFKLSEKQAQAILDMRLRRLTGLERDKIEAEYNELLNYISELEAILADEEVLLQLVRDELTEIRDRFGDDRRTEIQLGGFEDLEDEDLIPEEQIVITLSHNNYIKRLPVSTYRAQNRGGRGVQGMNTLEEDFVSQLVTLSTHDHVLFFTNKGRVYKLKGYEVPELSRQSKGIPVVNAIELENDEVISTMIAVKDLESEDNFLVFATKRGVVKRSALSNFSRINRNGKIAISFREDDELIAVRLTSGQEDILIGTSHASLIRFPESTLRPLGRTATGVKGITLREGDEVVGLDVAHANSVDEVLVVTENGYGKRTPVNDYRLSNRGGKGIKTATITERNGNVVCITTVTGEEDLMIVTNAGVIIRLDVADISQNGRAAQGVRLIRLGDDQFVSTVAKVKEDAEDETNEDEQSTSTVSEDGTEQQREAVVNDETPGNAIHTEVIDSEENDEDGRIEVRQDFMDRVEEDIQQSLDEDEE

SMILES: O=C(/C=C/c1cccc2cccnc12)NNC(=O)c1cc(-c2ccccc2)on1 [EN-7]
- Occurrence of DNA nicking (S. aureus gyrase, pBR322): does increase the occurrence of DNA nicking
- Stabilization of gyrase-DNA double-stranded cleavage complex (S. aureus gyrase, pBR322): does not stabilize
- Effect on ciprofloxacin-induced formation of the double-stranded cleavage complex (co-treatment with ciprofloxacin): does not prevent
